Assay [1] concerns human colon cancer LoVo cells. Put plainly: Cell proliferation inhibition assay (CellTiter-Glo). Type of assay: cell-based. The conditions noted are these: for IC50 / Emax / Max Inhibition: LoVo cells, 96 hours incubation; for Emax: Homo sapiens, read-out: Max Inhibition; for LoVo IC50 value (ratio to Example Compound 1): LoVo IC50 of comparative compound divided by that of Example Compound 1 (0.66 μM). The source says: Experimental method: A CellTiter-Glo cell viability assay kit was used to test the inhibitory effect of the compounds on the in vitro proliferation of human colon cancer LoVo cells.
Experimental materials: LoVo cells (ATCC, Cat. No. CCL-29); F-12K medium (Invitrogen, Cat. No. 21127-022); fetal bovine serum (Biological Industries, Cat. No. 04-002-1A); GlutaMAX (Gibco, Cat. No. 35050-061); 0.25% trypsin-EDTA (Invitrogen, Cat. No. 25200-072); CellTiter-Glo kit (Promega, Cat. No. G7558).
Experimental procedure: (1) F-12K medium, fetal bovine serum and GlutaMAX were formulated into a complete medium for culturing LoVo cells; (2) well-grown LoVo cells were taken, digested with trypsin and transferred to a centrifuge tube, and centrifuged; the supernatant was discarded, and cells were resuspended by adding a fresh medium and counted by a Vi-CELL XR cell counter; the density of the cell suspension was adjusted to 25,000 to 30,000 cells/mL, and the cell suspension was added at 100 μL/well in a 96-well cell culture plate, while a blank control group was set up with no cells added, and the cell culture plate was incubated in a carbon dioxide incubator overnight; (3) a DMSO solution of the compound to be tested was dispensed into the above 96-well cell culture plate using an HP D300 ultra-micro sampler, with 0.5 μL of the solution per well and 10 concentrations for each compound (3× dilution), while a DMSO control group with no compound added was set up, and the plate was continued to be incubated in a carbon dioxide incubator for 96 hours; (4) the cell culture plate was taken out and equilibrated to room temperature, with 100 μL of a CellTiter-Glo reagent added to each well, and then the plate was kept away from light, shaken for 10 minutes and then incubated for 10 minutes; (5) the cell culture plate was put into EnSpire for plate reading, and the luminescence value RLU was recorded.
Data processing: (1) The inhibition rate was calculated from the luminescence values: “RLUDMSO” is the luminescence value of the DMSO control group without compound, “RLUblank” is the luminescence value of the blank control group without cells, and “RLUcompound” is the luminescence value of the compound test group, and the inhibition rate=[1−(RLUcompound−RLUblank)/(RLUDMSO−RLUblank)]×100%; (2) with curve fitting using the Excel add-on XLFit, the IC50 value was calculated.
Background: In ATP-based viability assays light output follows the ATP content of the culture.

The next assay has as its target ATR kinase (Homo sapiens (Human), UniProt Q13535). Put plainly: In vitro ATR kinase inhibition assay (Mobility Shift Assay, Caliper EZ Reader). The format is biochemical. Conditions: for IC50: ATP concentration of Km, 4 h at 28° C.; for ATR IC50 value (ratio to Example Compound 1): ATR IC50 of comparative compound divided by that of Example Compound 1 (5.5 nM). As for the experimental part:
Experimental method: The inhibitory activity of the compounds on ATR kinase in vitro was determined by Mobility Shift Assay at an ATP concentration of Km using Caliper EZ Reader as a mobility shift assaying technology based on microfluidic chip technology.
Experimental procedure: (1) The compounds to be tested were dissolved in DMSO and serially diluted 4× for a total of 10 concentrations; (2) 0.06 μL of the compounds at different concentrations were pipetted into a 384-well plate using an Echo pipetting system; (3) a 2× kinase solution with a concentration of 10 nM ATR kinase was prepared from the ATR kinase and the 1× kinase buffer; and a 2× substrate solution with a concentration of 6 μM 5-FAM-AK-17 and 4 μM ATP was prepared from 5-FAM-AK-17, ATP and the 1× kinase buffer; (4) 10 μL of the 2× kinase solution was added into the 384-well plate and incubated for 10 min at room temperature; 10 μL of the 2× substrate solution was then added and incubated for 4 h at 28° C.; (5) 30 μL of the termination buffer was added to terminate the reaction, and then the 384-well plate was put into the Caliper EZ Reader to read the conversion rate data.

The structures appear in SMILES notation.

One may read the IC50 as the midpoint of a concentration-inhibition curve.

ATR kinase, sequence (Q13535 whole entry): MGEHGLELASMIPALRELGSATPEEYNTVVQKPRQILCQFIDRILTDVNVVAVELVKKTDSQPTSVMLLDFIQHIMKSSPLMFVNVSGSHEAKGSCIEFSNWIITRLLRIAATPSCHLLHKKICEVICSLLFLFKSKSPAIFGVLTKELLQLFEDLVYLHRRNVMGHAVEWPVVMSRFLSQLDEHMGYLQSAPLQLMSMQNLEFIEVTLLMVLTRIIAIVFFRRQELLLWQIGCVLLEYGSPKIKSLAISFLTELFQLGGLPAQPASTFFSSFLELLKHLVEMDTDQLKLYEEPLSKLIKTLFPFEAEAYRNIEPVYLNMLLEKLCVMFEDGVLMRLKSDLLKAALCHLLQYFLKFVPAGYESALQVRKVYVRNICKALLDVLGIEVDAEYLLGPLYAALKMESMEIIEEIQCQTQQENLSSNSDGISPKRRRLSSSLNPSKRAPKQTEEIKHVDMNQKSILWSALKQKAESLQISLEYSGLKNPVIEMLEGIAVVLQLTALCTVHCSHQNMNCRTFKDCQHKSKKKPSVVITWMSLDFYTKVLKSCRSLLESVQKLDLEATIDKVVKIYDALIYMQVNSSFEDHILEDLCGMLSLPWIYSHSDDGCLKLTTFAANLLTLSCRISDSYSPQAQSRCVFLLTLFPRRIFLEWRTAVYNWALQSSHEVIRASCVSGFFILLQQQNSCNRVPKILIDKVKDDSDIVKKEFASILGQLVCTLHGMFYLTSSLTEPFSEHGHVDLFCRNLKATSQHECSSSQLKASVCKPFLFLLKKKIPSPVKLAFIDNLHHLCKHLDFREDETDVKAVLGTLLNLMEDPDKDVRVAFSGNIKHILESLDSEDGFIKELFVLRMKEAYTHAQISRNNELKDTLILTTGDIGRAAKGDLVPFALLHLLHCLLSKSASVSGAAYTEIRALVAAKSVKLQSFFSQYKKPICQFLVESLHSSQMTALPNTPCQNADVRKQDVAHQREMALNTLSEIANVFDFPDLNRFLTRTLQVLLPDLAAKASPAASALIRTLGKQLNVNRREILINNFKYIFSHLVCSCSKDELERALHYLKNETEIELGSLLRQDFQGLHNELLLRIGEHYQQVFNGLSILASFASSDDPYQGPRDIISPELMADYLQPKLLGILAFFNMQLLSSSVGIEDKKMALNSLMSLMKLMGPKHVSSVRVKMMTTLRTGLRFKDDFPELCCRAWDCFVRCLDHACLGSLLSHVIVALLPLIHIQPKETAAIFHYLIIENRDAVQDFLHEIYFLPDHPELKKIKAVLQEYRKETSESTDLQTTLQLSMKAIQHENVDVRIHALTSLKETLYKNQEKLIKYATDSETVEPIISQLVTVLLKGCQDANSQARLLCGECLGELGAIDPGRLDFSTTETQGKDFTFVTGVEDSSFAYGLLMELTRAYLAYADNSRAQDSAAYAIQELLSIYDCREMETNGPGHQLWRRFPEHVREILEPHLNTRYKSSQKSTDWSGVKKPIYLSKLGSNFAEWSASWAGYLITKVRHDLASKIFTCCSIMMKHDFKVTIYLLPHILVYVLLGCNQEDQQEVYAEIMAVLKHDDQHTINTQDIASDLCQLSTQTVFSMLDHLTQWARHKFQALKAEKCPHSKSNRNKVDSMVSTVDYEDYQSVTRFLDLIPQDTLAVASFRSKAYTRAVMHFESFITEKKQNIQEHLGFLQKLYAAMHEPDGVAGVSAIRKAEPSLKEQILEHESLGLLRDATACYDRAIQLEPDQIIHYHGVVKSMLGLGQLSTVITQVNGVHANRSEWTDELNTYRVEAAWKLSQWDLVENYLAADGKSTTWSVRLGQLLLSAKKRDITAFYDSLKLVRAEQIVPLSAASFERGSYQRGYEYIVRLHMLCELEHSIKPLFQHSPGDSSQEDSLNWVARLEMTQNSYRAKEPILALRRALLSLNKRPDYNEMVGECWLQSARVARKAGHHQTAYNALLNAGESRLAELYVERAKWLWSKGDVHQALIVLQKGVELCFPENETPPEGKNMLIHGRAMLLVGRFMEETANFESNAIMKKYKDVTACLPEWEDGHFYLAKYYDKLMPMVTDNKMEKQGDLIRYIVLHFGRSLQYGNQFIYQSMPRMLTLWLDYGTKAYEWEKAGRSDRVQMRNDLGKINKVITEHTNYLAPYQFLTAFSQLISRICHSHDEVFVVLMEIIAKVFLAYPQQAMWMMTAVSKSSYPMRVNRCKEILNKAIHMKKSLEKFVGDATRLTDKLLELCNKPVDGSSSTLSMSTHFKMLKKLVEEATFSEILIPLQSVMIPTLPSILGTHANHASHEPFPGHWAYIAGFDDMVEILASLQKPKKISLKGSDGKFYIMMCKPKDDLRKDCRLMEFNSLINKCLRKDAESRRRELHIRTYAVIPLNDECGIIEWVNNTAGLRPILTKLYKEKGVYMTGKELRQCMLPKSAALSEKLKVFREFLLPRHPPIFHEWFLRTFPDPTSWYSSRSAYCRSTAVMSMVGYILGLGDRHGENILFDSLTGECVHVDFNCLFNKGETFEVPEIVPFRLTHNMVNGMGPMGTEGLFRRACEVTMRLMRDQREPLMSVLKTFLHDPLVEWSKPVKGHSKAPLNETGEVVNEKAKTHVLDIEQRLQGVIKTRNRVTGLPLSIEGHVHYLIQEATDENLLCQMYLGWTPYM
ATR kinase, sequence (Q8WXE1 whole entry partner): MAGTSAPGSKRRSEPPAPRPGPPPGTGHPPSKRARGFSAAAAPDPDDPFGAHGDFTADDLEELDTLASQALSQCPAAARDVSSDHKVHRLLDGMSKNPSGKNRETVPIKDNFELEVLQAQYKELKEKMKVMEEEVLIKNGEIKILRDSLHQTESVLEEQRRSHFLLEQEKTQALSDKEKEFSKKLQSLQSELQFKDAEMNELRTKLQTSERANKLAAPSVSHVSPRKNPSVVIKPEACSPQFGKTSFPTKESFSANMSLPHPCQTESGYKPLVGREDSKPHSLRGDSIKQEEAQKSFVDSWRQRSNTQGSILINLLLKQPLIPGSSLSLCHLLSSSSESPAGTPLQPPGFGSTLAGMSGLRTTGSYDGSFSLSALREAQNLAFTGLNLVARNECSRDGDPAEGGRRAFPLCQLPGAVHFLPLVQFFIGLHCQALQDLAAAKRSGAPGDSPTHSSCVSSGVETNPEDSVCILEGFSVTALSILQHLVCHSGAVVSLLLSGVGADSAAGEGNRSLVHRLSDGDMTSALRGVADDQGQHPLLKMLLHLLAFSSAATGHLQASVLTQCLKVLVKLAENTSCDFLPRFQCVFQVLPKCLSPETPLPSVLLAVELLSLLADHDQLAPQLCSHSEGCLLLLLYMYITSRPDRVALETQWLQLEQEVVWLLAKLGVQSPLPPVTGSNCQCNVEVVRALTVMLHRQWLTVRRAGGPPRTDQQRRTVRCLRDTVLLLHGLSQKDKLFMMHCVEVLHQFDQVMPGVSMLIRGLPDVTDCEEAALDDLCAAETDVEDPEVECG

As for `C[C@@H]1COCCN1c1cc(-c2ccnc3[nH]ccc23)nc2c1ccn2S(C)(=O)=O` [Compound 1, (R)-3-methyl-4-(1′-(methylsulfonyl)-1H,1′H-[4,6′-dipyrrolo[2,3-b]pyridin]-4′-yl)morpholine], the IC50 is 660 nM in assay [1] and 5.5 nM at ATR kinase.
`C[C@@H]1COCCN1c1cc(-c2cccc3[nH]ccc23)nc2c1ccn2S(C)(=O)=O` [Compound 2, (R)-4-(6-(1H-indol-4-yl)-1-(methylsulfonyl)-1H-pyrrolo[2,3-b]pyridin-4-yl)-3-methylmorpholine]: the Emax in assay [1] is 94%. For the same compound, at ATR kinase, the IC50 was found to be 4.2 nM.
Consider `C[C@@H]1COCCN1c1cc(-c2ccnc3[nH]ccc23)nc2c1ccn2C` [Compound 2′, reference compound], for which, at ATR kinase, the IC50 turned out to be 63 nM.
For `C[C@@H]1COCCN1c1cc(-c2cncc3[nH]ccc23)nc2c1ccn2S(C)(=O)=O` [Compound 3, (R)-3-methyl-4-(1-(methylsulfonyl)-6-(1H-pyrrolo[2,3-c]pyridin-4-yl)-1H-pyrrolo[2,3-b]pyridin-4-yl)morpholine], the Emax in assay [1] was 93%. Further, at ATR kinase, the IC50 amounted to 10 nM.
Take `C[C@@H]1COCCN1c1nc(-c2cncc3[nH]ccc23)nc2c1ccn2C` [Compound 3′, reference compound]: the IC50 on ATR kinase turned out to be 31 nM.
Regarding `C[C@@H]1COCCN1c1cc(-c2cnc3[nH]ccc3c2)nc2c1ccn2S(C)(=O)=O` [Compound 4, (R)-3-methyl-4-(1′-(methylsulfonyl)-1H,1′H-[5,6′-dipyrrolo[2,3-b]pyridin]-4′-yl)morpholine], the IC50 on ATR kinase is 208 nM.
With `C[C@@H]1COCCN1c1cc(-c2ccnc3[nH]ccc23)nc2c1ccn2CS(C)(=O)=O` [Compound 4′, reference compound], the “LoVo IC50 value (ratio to Example Compound 1)” value in assay [1] is 2.34/0.66 = 3.55. At ATR kinase, the IC50 turned out to be 20 nM and the “ATR IC50 value (ratio to Example Compound 1)” value was 20/5.5 = 3.64.
In the case of `C[C@@H]1COCCN1c1cc(-c2c[nH]c3ncccc23)nc2c1ccn2S(C)(=O)=O` [Compound 5, (R)-3-methyl-4-(1′-(methylsulfonyl)-1H,1′H-[3,6′-dipyrrolo[2,3-b]pyridin]-4′-yl)morpholine], at ATR kinase, the IC50 was determined as 534 nM.
Turning to `CC(n1ccc2c(N3CCOC[C@H]3C)cc(-c3ccnc4[nH]ccc34)nc21)S(C)(=O)=O` (stereo partly drawn) [Compound 5′, reference compound], the “LoVo IC50 value (ratio to Example Compound 1)” value in assay [1] is given as 1.88/0.66 = 2.85. For the same compound, at ATR kinase, the IC50 amounted to 15 nM and the “ATR IC50 value (ratio to Example Compound 1)” value is 15/5.5 = 2.73.
Regarding `Cc1c[nH]c2nccc(-c3cc(N4CCOC[C@H]4C)c4ccn(S(C)(=O)=O)c4n3)c12` [Compound 6, (R)-3-methyl-4-(3-methyl-1′-(methylsulfonyl)-1H,1′H-[4,6′-dipyrrolo[2,3-b]pyridin]-4′-yl)morpholine], the IC50 at ATR kinase was 188 nM.
On the same count and under the same terms, in the case of `C[C@@H]1COCCN1c1cc(-c2ccnc3[nH]ccc23)c2ccn(S(C)(=O)=O)c2n1` [Compound 6′, reference compound] it was 268 nM.
Turning to `C[C@@H]1COCCN1c1cc(-c2cc(F)cc3[nH]ccc23)nc2c1ccn2S(C)(=O)=O` [Compound 7, (R)-4-(6-(6-fluoro-1H-indol-4-yl)-1-(methylsulfonyl)-1H-pyrrolo[2,3-b]pyridin-4-yl)-3-methylmorpholine], in assay [1], the Emax turned out to be 95%. The IC50 on ATR kinase stood at 3.2 nM.
As for `CC(n1cnc2c(N3CCOC[C@H]3C)nc(-c3cncc4[nH]ccc34)cc21)S(C)(=O)=O` (stereo partly drawn) [Compound 7′, reference compound], the IC50 on ATR kinase was 28 nM.
The same measure, in the same setting: in the case of `C[C@@H]1COCCN1c1cc(-c2ccc(F)c3[nH]ccc23)nc2c1ccn2S(C)(=O)=O` [Compound 8, (R)-4-(6-(7-fluoro-1H-indol-4-yl)-1-(methylsulfonyl)-1H-pyrrolo[2,3-b]pyridin-4-yl)-3-methylmorpholine] it was 78 nM; in that of `C[C@@H]1COCCN1c1cc(-c2ccn[nH]2)nc2c1ccn2S(C)(=O)=O` [Compound 9, (R)-3-methyl-4-(1-(methylsulfonyl)-6-(1H-pyrazol-5-yl)-1H-pyrrolo[2,3-b]pyridin-4-yl)morpholine], 311 nM; in that of `C[C@@H]1COCCN1c1cc(-c2cn[nH]c2)nc2c1ccn2S(C)(=O)=O` [Compound 10, (R)-3-methyl-4-(1-(methylsulfonyl)-6-(1H-pyrazol-4-yl)-1H-pyrrolo[2,3-b]pyridin-4-yl)morpholine], 843 nM.
Still for that read-out and setting: the same measure for `C[C@@H]1COCCN1c1cc(-c2nc3ccccc3[nH]2)nc2c1ccn2S(C)(=O)=O` [Compound 11, (R)-4-(6-(1H-benzo[d]imidazol-2-yl)-1-(methylsulfonyl)-1H-pyrrolo[2,3-b]pyridin-4-yl)-3-methylmorpholine]: 823 nM.
`C[C@@H]1COCCN1c1cc(-c2ncnc3[nH]ccc23)nc2c1ccn2S(C)(=O)=O` [Compound 12, (R)-3-methyl-4-(1-(methylsulfonyl)-6-(7H-pyrrolo[2,3-d]pyrimidin-4-yl)-1H-pyrrolo[2,3-b]pyridin-4-yl)-morpholine]: the IC50 at ATR kinase was 130 nM.
Regarding `C[C@@H]1COCCN1c1cc(-c2ccnc3[nH]cnc23)nc2c1ccn2S(C)(=O)=O` [Compound 13, (R)-4-(6-(3H-imidazo[4,5-b]pyridin-7-yl)-1-(methylsulfonyl)-1H-pyrrolo[2,3-b]pyridin-4-yl)-3-methylmorpholine], on ATR kinase, the IC50 worked out at 196 nM.
As for `CC(C)S(=O)(=O)n1ccc2c(N3CCOC[C@H]3C)cc(-c3ccnc4[nH]ccc34)nc21` [Compound 14, (R)-4-(1′-(isopropylsulfonyl)-1H,1′H-[4,6′-dipyrrolo[2,3-b]pyridin]-4′-yl)-3-methylmorpholine], in assay [1], the IC50 is 2130 nM and the “Max Inhibition” value turned out to be 93%. In addition, the IC50 on ATR kinase came out at 35 nM.
`C[C@@H]1COCCN1c1cc(-c2ccnc3[nH]ccc23)nc2c1ccn2S(=O)(=O)C1CC1` [Compound 15, (R)-4-(1′-(cyclopropylsulfonyl)-1H,1′H-[4,6′-dipyrrolo[2,3-b]pyridin]-4′-yl)-3-methylmorpholine]: in assay [1], the IC50 is 1270 nM and the “Max Inhibition” value worked out at 94%. Further, at ATR kinase, the IC50 worked out at 12 nM.
As for `C[C@@H]1COCCN1c1cc(-c2ccnc3[nH]ccc23)nc2c1ccn2S(=O)(=O)N(C)C` [Compound 16, (R)-N,N-dimethyl-4′-(3-methylmorpholinyl)-1H,1′H-[4,6′-dipyrrolo[2,3-b]pyridine]-1′-sulfamide], in assay [1], the IC50 worked out at 1820 nM and the “Max Inhibition” value was 93%. For the same compound, at ATR kinase, the IC50 came out at 17 nM.
Turning to `C[C@@H]1COCCN1c1nc(-c2ccnc3[nH]ccc23)nc2c1ccn2S(C)(=O)=O` [Compound 17, (R)-3-methyl-4-(7-(methylsulfonyl)-2-(1H-pyrrolo[2,3-b]pyridin-4-yl)-7H-pyrrolo[2,3-d]pyrimidin-4-yl)morpholine], in assay [1], the Emax amounted to 93%. Moreover, on ATR kinase, the IC50 was 1.6 nM.
In the same order, the values of `C[C@@H]1COCCN1c1nc(-c2cccc3[nH]ccc23)nc2c1ccn2S(C)(=O)=O` [Compound 18, (R)-4-(2-(1H-indol-4-yl)-7-(methylsulfonyl)-7H-pyrrolo[2,3-d]pyrimidin-4-yl)-3-methylmorpholine] are 92% and 2.3 nM.
As to `C[C@@H]1COCCN1c1nc(-c2cncc3[nH]ccc23)nc2c1ccn2S(C)(=O)=O` [Compound 19, (R)-3-methyl-4-(7-(methylsulfonyl)-2-(1H-pyrrolo[2,3-c]pyridin-4-yl)-7H-pyrrolo[2,3-d]pyrimidin-4-yl)morpholine], the Emax in assay [1] stood at 90%. In addition, the IC50 at ATR kinase is 1.6 nM.

(Values after patent publication US20250051362A1, “SUBSTITUTED FUSED HETEROCYCLIC COMPOUND, AND PREPARATION METHOD THEREFOR AND USE THEREOF” (Shanghai Annova Biotechnology Co., Ltd., priority 2021, published 2025).)
